# Key:
# Homo sapiens = species: Homo sapiens; test: Selectivity for human retinal cone PDE-6 and human corpus cavernosum PDE-5
# [1] = molecular target: cGMP-specific 3',5'-cyclic phosphodiesterase (Homo sapiens, UniProt O76074); test: Phosphodiesterase 5 activity of human corpus cavernosum
# [2] = pKa value of the compound; format: physicochemical
# [3] = pKa of the compound; format: physicochemical
# Canis familiaris [4] = test: In vivo efficacy in dogs.; format: functional; conditions: Canis lupus familiaris
# [5] = Oral bioavailability in rat; format: ADME, organism-based; conditions: in vivo
# Canis familiaris [6] = test: In vivo efficacy in dogs; format: functional; conditions: Canis lupus familiaris
# Canis familiaris [7] = test: In vivo effect on erectile dysfunction in dogs after intravenous dose; format: functional; conditions: Canis lupus familiaris
Ratio (Homo sapiens),Ki [1] [nM],SMILES,further results
2.14,1.14,COc1ccc(-c2cnc(N3Cc4c(nc5ccccc5c4O)C3c3ccc4c(c3)CCC4)nc2)cc1OC (stereo not drawn),–
310,1.08,Oc1c2c(nc3ccccc13)C(c1ccc3c(c1)CCO3)N(c1ncccn1)C2 (stereo not drawn),–
–,8.86,COc1ccc(-c2cnc(N3CC(=O)c4c([nH]c5ccccc45)C3c3ccc4c(c3)OCO4)nc2)cc1OC (stereo not drawn),pKa [2]: ~14
–,0.53,CCN(CC)CCOc1ccc(-c2cnc(N3Cc4c(nc5ccccc5c4O)C3c3ccc4c(c3)CCO4)nc2)cc1 (stereo not drawn),–
0.59,0.21,COc1ccc(-c2cnc(N3Cc4c(nc5ccccc5c4O)[C@H]3c3ccc4c(c3)OCO4)nc2)cc1OC,pKa [3]: 9; ED50 (Canis familiaris [4]): 22.4 µg/kg
–,0.29,Oc1c2c(nc3ccccc13)C(c1ccc3c(c1)CCO3)N(c1ncc(-c3ccc(OCCN4CCOCC4)cc3)cn1)C2 (stereo not drawn),–
3.07,0.52,COc1ccc(-c2cnc(N3Cc4c(nc5ccccc5c4O)C3c3ccc4c(c3)OCCO4)nc2)cc1 (stereo not drawn),–
–,–,CCCc1nn(C)c2c(=O)[nH]c(-c3cc(S(=O)(=O)N4CCN(C)CC4)ccc3OCC)nc12,bioavailability [5]: 11%; ED50 (Canis familiaris [6]): 5.1 µg/kg
7.4,1.2,Oc1c2c(nc3ccccc13)C(c1ccc3c(c1)OCO3)N(c1ncccn1)C2 (stereo not drawn),–
–,24.7,COc1ccc(-c2cnc(N3Cc4c(nc5ccccc5c4O)C3c3ccc(OC)c(OC)c3)nc2)cc1OC (stereo not drawn),–
18.5,0.31,COc1ccc(-c2cnc(N3Cc4c(nc5ccccc5c4O)C3c3ccc4c(c3)OCO4)nc2)cc1 (stereo not drawn),–
55.9,0.4,COc1ccc(-c2cnc(N3Cc4c(nc5ccccc5c4O)C3c3ccc4c(c3)CCO4)nc2)cc1 (stereo not drawn),bioavailability [5]: 20%
–,1.75,Oc1ccc(-c2cnc(N3Cc4c(nc5ccccc5c4O)C3c3ccc4c(c3)CCO4)nc2)cc1 (stereo not drawn),–
27,0.23,COc1ccc(-c2cnc(N3Cc4c(nc5ccccc5c4O)[C@H]3c3ccc4c(c3)CCO4)nc2)cc1,ED50 (Canis familiaris [7]): 9.6 µg/kg

# — ChEMBL document CHEMBL1135774 (J Med Chem, 2002)
